Reference: patent US9364479B2, “Use of a receptor-type kinase modulator for treating polycystic kidney disease” (SYMPHONY EVOLUTION, INC., priority 2010, dated 2016)
Marks after values point to notes of the source that are not given here.

Assays:
[1] = molecular target: T1, EGFR phosphorylation (H1975 cells) (Homo sapiens, UniProt P00533, L858R/T790M); experiment: Immunoblot analysis of H1975 cell lysates; format: cell-based
T1 construct: host or cells: H1975 (cultured cells; s.c. xenografts in mice)
Experimental: For the H1975 immunoblot studies, 3×10^5 cells were plated in each well (12-well plate) and incubated for 16 h in complete RPMI 1640, rinsed with fetal bovine serum-free RPMI 1640, and incubated with serial dilutions of test compounds in fetal bovine serum-free medium for 2 h followed by stimulation with 100 ng/mL human recombinant EGF for 10 min. Whole-cell protein lysates were prepared as described above and centrifuged for 10 min at 13,000×g at 4° C. to remove any insoluble material. Total protein was determined using bicinchoninic acid reagent and an equal amount of protein was combined with LDS loading buffer (Invitrogen) according to the manufacturer's instructions. Proteins were separated by gel electrophoresis on 4% to 15% polyacrylamide gels, transferred to nitrocellulose membranes, and detected by immunoblotting. Antibody:antigen complexes were detected using chemiluminescence. The following antibodies from Cell Signaling Technology were used at a 1:1,000 dilution: anti-EGFR, anti-pEGFR^Tyr1068, anti-AKT, anti-pAKT^Ser473, anti-ERK, and anti-pERK^Thr202/Tyr204. The anti-β-actin primary antibody (Accurate Chemical and Scientific) was used at 1:10,000 and the horseradish peroxidase-coupled secondary antibodies were purchased from Jackson ImmunoResearch and used at 1:5,000.

[2] = molecular target: T2, Monoamine Oxidase B, Peripheral (Rattus norvegicus, UniProt P19643); experiment: NovaScreen assay; format: biochemical; conditions: read-out: Inhibition, 10 μM XL-647
T2 construct: NovaScreen
T2 sequence (P19643 whole entry): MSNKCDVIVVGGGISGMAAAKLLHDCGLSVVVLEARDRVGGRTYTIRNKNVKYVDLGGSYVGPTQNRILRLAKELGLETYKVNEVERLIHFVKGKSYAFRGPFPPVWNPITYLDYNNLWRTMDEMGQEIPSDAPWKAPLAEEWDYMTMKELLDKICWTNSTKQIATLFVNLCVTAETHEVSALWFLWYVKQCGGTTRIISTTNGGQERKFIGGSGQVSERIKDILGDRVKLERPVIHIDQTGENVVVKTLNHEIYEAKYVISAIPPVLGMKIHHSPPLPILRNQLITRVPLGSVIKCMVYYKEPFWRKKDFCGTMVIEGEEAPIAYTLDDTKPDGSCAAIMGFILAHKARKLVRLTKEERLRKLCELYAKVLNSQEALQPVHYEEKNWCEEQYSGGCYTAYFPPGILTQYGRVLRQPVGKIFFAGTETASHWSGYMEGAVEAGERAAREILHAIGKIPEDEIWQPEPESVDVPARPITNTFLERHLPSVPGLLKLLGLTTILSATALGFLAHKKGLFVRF

[3] = test system: Glutamic Acid Decarboxylase; experiment: NovaScreen assay; format: biochemical
[4] = molecular target: T3, EGFR (Homo sapiens, UniProt P00533); experiment: Luciferase-coupled chemiluminescence kinase assay; format: biochemical; conditions: ATP at Km
T3 construct: residues H672-A1210 of human EGFR, Proqinase; purchased Proqinase
Experimental: Dose-response experiments were done using 10 different inhibitor concentrations in 384-well microtiter plates. The ATP concentration used for each assay was equivalent to the Km for each kinase.
A Luciferase-coupled chemiluminescence assay was used to measure EGFR and KDR (VEGFR2) activity. Kinase activity was measured as the percentage of ATP consumed following the kinase reaction using luciferase-luciferin-coupled chemiluminescence. Reactions were conducted in 384-well white, medium-binding microtiter plates (Greiner). […] The reaction mixture was incubated at room temperature for 4 h. Following the kinase reaction, a 20 μL aliquot of Kinase Glo (Promega) was added and luminescence signal was measured using a Victor2 plate reader (Perkin-Elmer). Total ATP consumption was limited to 50%.

[5] = test system: subjects with advanced solid tumors; experiment: Clinical Study XL-647-002 (Phase 1, daily dosing)
[6] = molecular target: T4, Angiotensin II, AT2 (Homo sapiens, UniProt P50052); experiment: NovaScreen assay; format: binding; conditions: read-out: Inhibition, 10 μM XL-647
T4 construct: NovaScreen
T4 sequence (P50052 whole entry): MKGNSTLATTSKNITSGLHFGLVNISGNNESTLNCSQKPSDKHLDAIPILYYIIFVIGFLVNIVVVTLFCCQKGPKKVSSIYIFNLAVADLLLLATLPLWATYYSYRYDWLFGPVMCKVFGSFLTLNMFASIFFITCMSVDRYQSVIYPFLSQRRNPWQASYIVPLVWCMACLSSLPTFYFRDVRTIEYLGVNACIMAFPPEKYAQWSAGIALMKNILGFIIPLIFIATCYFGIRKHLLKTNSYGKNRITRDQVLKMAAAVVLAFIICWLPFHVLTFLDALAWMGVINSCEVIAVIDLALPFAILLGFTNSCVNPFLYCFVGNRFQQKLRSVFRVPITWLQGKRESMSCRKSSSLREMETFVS

[7] = molecular target: T5, total HER2/ErbB2 (Homo sapiens, UniProt P04626); experiment: In vivo receptor level, BT474 xenografts; parameters: species or system mouse
T5 construct: endogenous in cells; host or cells: BT474 tumour xenografts in mice (per the earlier reading)
T5 sequence (P04626 23-1255): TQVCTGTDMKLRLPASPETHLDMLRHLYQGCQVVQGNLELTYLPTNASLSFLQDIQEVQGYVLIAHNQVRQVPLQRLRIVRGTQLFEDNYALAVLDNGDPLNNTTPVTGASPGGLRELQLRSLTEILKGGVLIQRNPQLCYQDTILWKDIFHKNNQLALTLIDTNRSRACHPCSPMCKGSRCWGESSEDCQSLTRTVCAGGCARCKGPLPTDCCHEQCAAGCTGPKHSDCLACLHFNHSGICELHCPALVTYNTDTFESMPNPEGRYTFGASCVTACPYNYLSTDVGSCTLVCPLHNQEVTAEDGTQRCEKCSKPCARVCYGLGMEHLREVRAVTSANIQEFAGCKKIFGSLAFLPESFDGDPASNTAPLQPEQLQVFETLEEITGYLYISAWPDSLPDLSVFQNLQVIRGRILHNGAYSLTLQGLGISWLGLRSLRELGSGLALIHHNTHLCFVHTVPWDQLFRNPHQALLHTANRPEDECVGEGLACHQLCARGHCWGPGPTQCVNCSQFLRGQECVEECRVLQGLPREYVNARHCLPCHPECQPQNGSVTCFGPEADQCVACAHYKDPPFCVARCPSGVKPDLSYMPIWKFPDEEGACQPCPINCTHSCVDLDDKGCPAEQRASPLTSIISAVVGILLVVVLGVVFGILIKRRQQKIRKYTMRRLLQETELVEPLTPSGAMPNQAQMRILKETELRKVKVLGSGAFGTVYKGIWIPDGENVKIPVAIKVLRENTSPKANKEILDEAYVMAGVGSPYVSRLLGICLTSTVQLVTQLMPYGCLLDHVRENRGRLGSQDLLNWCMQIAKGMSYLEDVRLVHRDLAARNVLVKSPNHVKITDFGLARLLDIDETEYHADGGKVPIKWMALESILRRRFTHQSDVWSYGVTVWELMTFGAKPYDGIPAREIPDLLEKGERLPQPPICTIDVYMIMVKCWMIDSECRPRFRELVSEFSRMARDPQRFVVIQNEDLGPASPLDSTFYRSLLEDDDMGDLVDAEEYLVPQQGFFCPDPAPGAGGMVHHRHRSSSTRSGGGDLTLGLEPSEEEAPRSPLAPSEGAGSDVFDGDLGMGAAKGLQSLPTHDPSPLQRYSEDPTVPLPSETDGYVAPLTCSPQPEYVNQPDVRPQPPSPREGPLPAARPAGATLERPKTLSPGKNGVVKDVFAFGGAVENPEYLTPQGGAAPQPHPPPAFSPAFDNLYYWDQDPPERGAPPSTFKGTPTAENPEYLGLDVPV

[8] = in vivo; parameters: species or system mice, rats, dogs, and monkeys
Experimental: The nonclinical Pharmacokinetics (PK) of XL-647 was studied in mice, rats, dogs, and monkeys. Animals were dosed either once or daily over several days, as described in Table 21 and 22 below. A summary of results can also be found in Tables 21 and 22 below. […] Mean tmax values were approximately 4 to 8 hours, and plasma terminal half-lives ranged from 9.41 to 20.9 hours.

[9] = molecular target: T6, Angiotensin II, AT1 (Human) (Homo sapiens, UniProt P30556); experiment: NovaScreen assay; format: binding; conditions: read-out: Inhibition, 10 μM XL-647
T6 construct: NovaScreen
T6 sequence (P30556 whole entry): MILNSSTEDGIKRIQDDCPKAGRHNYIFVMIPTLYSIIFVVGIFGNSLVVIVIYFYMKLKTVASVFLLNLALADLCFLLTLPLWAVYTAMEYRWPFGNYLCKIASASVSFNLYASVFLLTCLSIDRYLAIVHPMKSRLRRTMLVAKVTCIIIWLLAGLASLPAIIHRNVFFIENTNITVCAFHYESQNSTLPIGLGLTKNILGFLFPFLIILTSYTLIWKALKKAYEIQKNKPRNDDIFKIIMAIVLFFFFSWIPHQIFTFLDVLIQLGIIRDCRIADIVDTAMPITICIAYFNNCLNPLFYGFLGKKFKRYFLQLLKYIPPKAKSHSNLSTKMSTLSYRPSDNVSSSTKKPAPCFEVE

[10] = molecular target: T7, MAP4K3 (Homo sapiens, UniProt Q8IVH8); experiment: Chemiluminescent kinase assay; format: biochemical
T7 construct: Kinase domain,; His6 (N)
T7 sequence (Q8IVH8 16-273 limits assumed, species assumed): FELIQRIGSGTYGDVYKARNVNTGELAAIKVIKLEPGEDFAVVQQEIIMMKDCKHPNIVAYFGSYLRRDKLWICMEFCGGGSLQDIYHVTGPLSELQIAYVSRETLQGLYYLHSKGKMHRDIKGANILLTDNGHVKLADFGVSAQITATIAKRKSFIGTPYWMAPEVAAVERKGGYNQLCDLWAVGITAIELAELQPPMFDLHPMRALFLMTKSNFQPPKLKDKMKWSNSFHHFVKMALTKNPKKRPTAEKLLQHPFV
Experimental: (§1) Further screening was performed using the biochemical assay methods of Example 2. Additional description of the components and concentrations are summarized in Table 8, Table 9, and Table 10, below.

[11] = molecular target: T8, EMK (Homo sapiens, UniProt Q7KZI7); experiment: Chemiluminescent kinase assay; format: biochemical
T8 construct: His6 (N)
T8 sequence (Q7KZI7 whole entry): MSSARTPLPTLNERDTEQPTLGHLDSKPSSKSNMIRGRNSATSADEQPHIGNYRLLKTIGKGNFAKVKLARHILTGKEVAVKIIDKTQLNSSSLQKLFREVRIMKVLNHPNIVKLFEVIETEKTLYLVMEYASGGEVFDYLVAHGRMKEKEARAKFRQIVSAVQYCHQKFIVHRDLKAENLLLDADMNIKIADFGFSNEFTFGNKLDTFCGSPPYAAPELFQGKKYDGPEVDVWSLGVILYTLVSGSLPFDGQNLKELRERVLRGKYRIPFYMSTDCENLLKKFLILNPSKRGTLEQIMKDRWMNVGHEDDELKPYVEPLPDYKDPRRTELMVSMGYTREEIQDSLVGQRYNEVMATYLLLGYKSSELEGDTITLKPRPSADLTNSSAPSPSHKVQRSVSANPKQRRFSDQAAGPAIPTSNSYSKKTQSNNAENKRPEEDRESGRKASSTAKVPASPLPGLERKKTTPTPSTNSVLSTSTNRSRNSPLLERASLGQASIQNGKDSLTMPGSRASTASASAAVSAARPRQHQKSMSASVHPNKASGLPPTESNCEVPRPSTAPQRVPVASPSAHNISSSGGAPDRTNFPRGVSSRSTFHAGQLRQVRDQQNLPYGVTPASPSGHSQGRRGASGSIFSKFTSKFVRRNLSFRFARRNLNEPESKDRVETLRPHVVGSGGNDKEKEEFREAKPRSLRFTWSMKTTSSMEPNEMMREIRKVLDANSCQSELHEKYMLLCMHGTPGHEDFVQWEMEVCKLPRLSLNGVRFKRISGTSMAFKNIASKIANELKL
Experimental: as §1

[12] = molecular target: T9, GSK3β (Homo sapiens, UniProt P49841); experiment: Chemiluminescent kinase assay; format: biochemical
T9 construct: His6 (N); purchased Upstate Biotechnology
T9 sequence (P49841 whole entry): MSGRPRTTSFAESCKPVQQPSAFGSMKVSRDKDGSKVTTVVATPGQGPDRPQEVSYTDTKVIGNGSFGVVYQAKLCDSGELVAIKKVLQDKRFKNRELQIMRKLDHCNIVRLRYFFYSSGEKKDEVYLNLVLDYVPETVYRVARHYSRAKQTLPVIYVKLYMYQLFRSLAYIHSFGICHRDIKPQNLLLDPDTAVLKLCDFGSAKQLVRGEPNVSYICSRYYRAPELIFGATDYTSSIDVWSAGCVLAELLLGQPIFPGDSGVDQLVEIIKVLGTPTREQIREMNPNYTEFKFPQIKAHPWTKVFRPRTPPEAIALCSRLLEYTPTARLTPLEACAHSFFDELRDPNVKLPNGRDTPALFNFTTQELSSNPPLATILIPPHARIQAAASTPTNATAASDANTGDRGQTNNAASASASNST
Experimental: as §1

[13] = molecular target: T10, Neurokinin, NK2 (NKA) (Human Recombinant) (Homo sapiens, UniProt P21452); experiment: NovaScreen assay; format: binding; conditions: read-out: Inhibition, 10 μM XL-647
T10 construct: NovaScreen
T10 sequence (P21452 whole entry): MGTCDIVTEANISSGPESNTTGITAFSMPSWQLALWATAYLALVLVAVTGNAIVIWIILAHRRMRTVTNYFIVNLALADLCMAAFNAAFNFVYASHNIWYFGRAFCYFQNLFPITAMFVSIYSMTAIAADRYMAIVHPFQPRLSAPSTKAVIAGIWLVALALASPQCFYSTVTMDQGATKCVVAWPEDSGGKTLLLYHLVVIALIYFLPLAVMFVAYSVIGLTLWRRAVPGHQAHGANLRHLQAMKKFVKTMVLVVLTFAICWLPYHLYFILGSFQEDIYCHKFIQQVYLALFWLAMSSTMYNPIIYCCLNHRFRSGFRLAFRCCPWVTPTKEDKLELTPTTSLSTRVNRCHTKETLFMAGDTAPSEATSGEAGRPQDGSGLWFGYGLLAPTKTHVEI

[14] = test system: Phospho AKT Ser473; experiment: Immunohistochemical analysis of phosphorylation in H1975 xenografts; format: in vivo, mouse; conditions: 14-day dosing
Experimental: For immunohistochemical analysis of H1975, MDA-MB-231 and other xenografts, tumors were excised after euthanasia and fixed in zinc fixative (BD Biosciences) for 48 h before being processed into paraffin blocks. Serial sections at 5 μm were obtained from the area of largest possible surface for each tumor and stained using standard methods. The following antibodies were used: Ki67 (SP6; Labvision), CD31 (MECA.32; BD Biosciences), pERK^Thr202/Tyr204 (phospho-p44/42 mitogen-activated protein kinase; Cell Signaling Technology), pAKT^Ser473 (Cell Signaling Technology), and pEGFR^Tyr1068 (Cell Signaling Technology). For immunofluorescent staining, sections were then incubated with Alexa 594-conjugated goat anti-rabbit secondary antibody (Invitrogen) and mounted in Fluorescent Mounting Medium (DAKO) containing 4′,6-diamidino-2-phenylindole (Molecular Probes) as a nuclear counterstain. Fluorescent staining was visualized using a Zeiss Axiolmager and digitally captured using a Zeiss high-resolution camera coupled to AxioVision image analysis software. Two to three nonoverlapping representative fields were captured at ×200 or ×400 magnification depending on histologic readout and quantified using the integrated morphometric analysis functions in Metamorph software (Universal Imaging Corp.). Apoptotic cells were detected using terminal deoxynucleotidyl transferase-mediated dUTP nick end labeling in situ cell death detection kit according to the manufacturer's instructions (Roche Diagnostics GmbH).
Results are presented as mean±SD or SE as indicated for each graph or table. For IC50 comparison in the A431 cell viability experiment, two sample Student's t tests were applied to determine P values for each IC50 pair assuming that the random fluctuations of replicates around the dose-response curve are distributed [log]normally with the individual replicates used as the ‘sample size’ for the t test (nine point dose response done in triplicate). For statistical analysis of immunohistochemical results from in vivo studies, two-tailed Student's t test analysis and Bonferroni correction were done to identify significant differences compared with vehicle control group (multiple use of a single vehicle control group) with a cumulative minimal requirement of P<0.05.

[15] = molecular target: p-Y-EGFR (Homo sapiens, UniProt P00533); experiment: In vivo receptor phosphorylation, A431 xenografts; parameters: species or system mouse

Structure (SMILES): COc1cc2c(Nc3ccc(Cl)c(Cl)c3F)ncnc2cc1OC[C@@H]1C[C@@H]2CN(C)C[C@@H]2C1 [XL-647, N-(3,4-dichloro-2-fluorophenyl)-7-({[(3aR,5r,6aS)-2-methyloctahydrocyclopenta[c]pyrrol-5-yl]methyl}oxy)-6-(methyloxy)quinazolin-4-amine]
- phosphorylation of EGFR, immunoblot [1]: inhibits phosphorylation of EGFR
- inhibition at 10 µM [2]: 2.03%
- Inhibition, 10 μM XL-647 [3]: −8.46%
- IC50 [4]: 0.0003 ± 0.0001 µM
- subjects with SD lasting greater than 3 months ([5]; human, in vivo): 16 subjects
- MTD ([5]; single oral dose daily): 300 mg
- inhibition at 10 µM [6]: 16.6%
- Single Dose Duration of Action (100 mg/kg, >50% inhibition) [7]: >96 h
- accumulation in plasma [8]: < 2 fold
- dose proportionality of AUC, in words [8]: approximately dose proportionally over lower dose ranges
- bioavailability ([8]; dog, po): 63 to 74%
- Tmax ([8]; mouse, rat, dog, monkey): 4 to 8 h
- half-life ([8]; mouse, rat, dog, monkey): 9.41 to 20.9 h
- volumes of distribution ([8]; mouse, rat, dog, monkey, iv): > 18 L/kg
- oral bioavailability, in words ([8]; po): orally bioavailable in mice, rats and dogs
- inhibition at 10 µM [9]: 6.85%
- IC50 [10]: > 1 µM
- IC50 [11]: > 10 µM
- IC50 [12]: > 1 µM
- inhibition at 10 µM [13]: 34.2%
- Phospho AKT Ser473 % Cells ([14]; 10 mg/kg): 19 ± 2.1%
- Phospho AKT Ser473 % Reduction ([14]; 10 mg/kg): 53.6^a %
- Phospho AKT Ser473 % Cells ([14]; 30 mg/kg): 12 ± 1.9%
- Phospho AKT Ser473 % Reduction ([14]; 30 mg/kg): 72.4^a %
- Phospho AKT Ser473 % Cells ([14]; 100 mg/kg): 11 ± 1.9%
- Phospho AKT Ser473 % Reduction ([14]; 100 mg/kg): 74.4^a %
- Single Dose Duration of Action (100 mg/kg, >50% inhibition) ([15]; A431 xenografts): >72 h
- inhibition at 3 mg/kg ([15]; A-431, mouse, 3 mg/kg, dosed 3.5 hours before EGF): 41%
- inhibition at 10 mg/kg ([15]; A-431, mouse, 10 mg/kg, dosed 3.5 hours before EGF): 70%
- inhibition at 30 mg/kg ([15]; A-431, mouse, 30 mg/kg (plasma 4 μM), dosed 3.5 hours before EGF): 89%
- inhibition at 100 mg/kg ([15]; A-431, mouse, 100 mg/kg, dosed 3.5 hours before EGF): 93%
- IC50 ([15]; in vivo, A431 xenografts, PO, read-out: Estimated IC50 (plasma concentration)): 0.72 µM
